Experimental data from US20250228865A1, “COMPOUNDS FOR ENHANCING READ THROUGH OF GENES CONTAINING PREMATURE TERMINATION CODONS AND METHODS FOR MAKING AND USING THE SAME” (Sanofi US Services Inc., priority 2022, published 2025).

Key:
[1] = test system: recombinant human CFTR carrying the premature stop codon (PTC) mutation G542X; assay: CFTR-PTC mutant translation readthrough, Nanoluc tagged CFTR luminescence (G542X cell line); assay type: cell-based; conditions: in combination with G418, G542X cell line; for CFTR G542X ACTIVITY Fold 10 μM G-418: fold over 10 μM G-418; for EC50: 16HBE cells
In short: (§1)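 16HBE cells stably expressing Nanoluc-tagged human CFTR with G542X or R1162X, in medium with 3 μM VX-809, treated 48 h at 37 °C with compound (10-point, 2-fold, top 50 μM final) alone or with 10 μM G418. Live-cell Nanoluc luminescence normalised to a maximally effective G418 (125-250 μM).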

[2] = test system: recombinant human CFTR carrying the premature stop codon (PTC) mutation R1162X; assay: CFTR-PTC mutant translation readthrough, Nanoluc tagged CFTR luminescence (R1162X cell line); assay type: cell-based; conditions: for CFTR R1162X ACTIVITY Fold 10 μM G-418: fold over 10 μM G-418, in combination with G418; for EC50: in combination with G418, 16HBE cells, read-out: CFTR R1162X ACTIVITY EC50
In short: as §1

EC50 [1] [nM]	EC50 [2] [nM]	Compound	CFTR G542X ACTIVITY Fold 10 μM G-418 [1]	CFTR R1162X ACTIVITY Fold 10 μM G-418 [2]
1000 to 10000	1000 to 10000	NC(=O)NCC1CN(c2ncc(OCc3c(Cl)cccc3Cl)cn2)CCO1 (stereo not drawn) [[4-[5-[(2,6-dichlorophenyl)methoxy]pyrimidin-2-yl]morpholin-2-yl]methylurea]	A′ (A′ = ≥10X)	B′ (B′ = ≥5X to <10X)
1000 to 10000	1000 to 10000	O=C1OCC2CN(c3ncc(OCc4c(Cl)cccc4Cl)cn3)CCN12 (stereo not drawn)	A′ (A′ = ≥10X)	B′ (B′ = ≥5X to <10X)
1000 to 10000	1000 to 10000	OC1CN(c2ncc(OCc3c(Cl)cccc3Cl)cn2)C1 [1-[5-[(2,6-dichlorophenyl)methoxy]pyrimidin-2-yl]azetidin-3-ol]	A′ (A′ = ≥10X)	A′ (A′ = ≥10X)
1000 to 10000	1000 to 10000	O=C1CN(c2ncc(OCc3c(Cl)cccc3Cl)cn2)C(=O)N1 [Example 323, 1-{5-[(2,6-dichlorophenyl)methoxy]pyrimidin-2-yl}imidazolidine-2,4-dione]	C′ (C′ = <5X)	C′ (C′ = <5X)
< 1000	< 1000	Cc1cccc(C(F)(F)F)c1COc1ccc(N2CC(=O)N(C)C2=O)nc1	A′ (A′ = ≥10X)	A′ (A′ = ≥10X)
1000 to 10000	1000 to 10000	Cc1cccc(C)c1COc1ccc(-n2ccc(CO)n2)nc1 [[1-[5-[(2,6-dimethylphenyl)methoxy]-2-pyridyl]pyrazol-3-yl]methanol]	A′ (A′ = ≥10X)	A′ (A′ = ≥10X)
1000 to 10000	1000 to 10000	NC(=O)N1CCCN(c2ncc(OCc3c(Cl)cccc3Cl)cn2)CC1 [4-[5-[(2,6-dichlorophenyl)methoxy]pyrimidin-2-yl]-1,4-diazepane-1-carboxamide]	A′ (A′ = ≥10X)	A′ (A′ = ≥10X)
1000 to 10000	1000 to 10000	COc1ccc(CN2C(=O)CN(c3ccc(OCc4c(C)cccc4C(F)(F)F)cc3)C2=O)cc1	B′ (B′ = ≥5X to <10X)	B′ (B′ = ≥5X to <10X)
1000 to 10000	1000 to 10000	CNC(=O)C1CCN(c2ncc(OCc3c(Cl)cccc3Cl)cn2)CC1	A′ (A′ = ≥10X)	A′ (A′ = ≥10X)
< 1000	1000 to 10000	NCc1cc(-c2ccc(OCc3c(Cl)cccc3Cl)cn2)no1 [Example 234, [3-[5-[(2,6-dichlorophenyl)methoxy]-2-pyridyl]isoxazol-5-yl]methanamine]	A′ (A′ = ≥10X)	A′ (A′ = ≥10X)
1000 to 10000	1000 to 10000	O=C1N[C@@H](CO)CN1c1ncc(OCc2c(Cl)cccc2C(F)(F)F)cn1 [(4R)-1-(5-{[2-chloro-6-(trifluoromethyl)phenyl]methoxy}pyrimidin-2-yl)-4-(hydroxymethyl)imidazolidin-2-one]	C′ (C′ = <5X)	C′ (C′ = <5X)
< 1000	1000 to 10000	NCC1CN(c2ncc(OCc3c(Cl)cccc3Cl)cn2)CCO1 (stereo not drawn) [[4-[5-[(2,6-dichlorophenyl)methoxy]pyrimidin-2-yl]morpholin-2-yl]methanamine]	A′ (A′ = ≥10X)	A′ (A′ = ≥10X)
1000 to 10000	1000 to 10000	CC(O)C1CCN(c2ncc(OCc3c(Cl)cccc3Cl)cn2)C1 (stereo not drawn) [1-[1-[5-[(2,6-dichlorophenyl)methoxy]pyrimidin-2-yl]pyrrolidin-3-yl]ethanol]	A′ (A′ = ≥10X)	A′ (A′ = ≥10X)
1000 to 10000	1000 to 10000	CN(CC1CNCCO1)c1ncc(OCc2c(Cl)cccc2Cl)cn1 (stereo not drawn)	C′ (C′ = <5X)	C′ (C′ = <5X)
1000 to 10000	1000 to 10000	O=CNCC1CCCN(c2ncc(OCc3c(Cl)cccc3Cl)cn2)C1 (stereo not drawn)	B′ (B′ = ≥5X to <10X)	B′ (B′ = ≥5X to <10X)
< 1000	< 1000	OCCC1(O)CCN(c2ncc(OCc3c(Cl)cccc3Cl)cn2)CC1	A′ (A′ = ≥10X)	A′ (A′ = ≥10X)
1000 to 10000	> 10000	C[C@@H](O)[C@@H]1CN(c2ncc(OCc3c(Cl)cccc3Cl)cn2)CCO1 (racemic)	A′ (A′ = ≥10X)	A′ (A′ = ≥10X)
1000 to 10000	1000 to 10000	CC(=O)N1CCN(c2ncc(OCc3c(C)cccc3C(F)(F)F)cn2)CC1CN (racemic)	C′ (C′ = <5X)	C′ (C′ = <5X)

EC50 [1] [nM]	EC50 [2] [nM]	Compound	CFTR G542X ACTIVITY Fold 10 μM G-418 [1]	CFTR R1162X ACTIVITY Fold 10 μM G-418 [2]
< 1000	< 1000	O=C1N[C@H](CO)CN1c1ccc(OCc2c(Cl)cccc2Cl)cn1	A′ (A′ = ≥10X)	A′ (A′ = ≥10X)
1000 to 10000	1000 to 10000	Cc1cccc(C(F)(F)F)c1COc1cnc(N2CC(CO)OCC2=O)nc1 (stereo not drawn)	A′ (A′ = ≥10X)	A′ (A′ = ≥10X)
1000 to 10000	1000 to 10000	COCC1CN(c2ccc(OCc3c(Cl)cccc3Cl)cc2)C(=O)N1 (stereo not drawn) [1-[4-[(2,6-dichlorophenyl)methoxy]phenyl]-4-(methoxymethyl)imidazolidin-2-one]	B′ (B′ = ≥5X to <10X)	B′ (B′ = ≥5X to <10X)
1000 to 10000	1000 to 10000	OCCN1CCN(c2ncc(OCc3c(Cl)cccc3Cl)cn2)CC1 [2-[4-[5-[(2,6-dichlorophenyl)methoxy]pyrimidin-2-yl]piperazin-1-yl]ethanol]	A′ (A′ = ≥10X)	A′ (A′ = ≥10X)
< 1000	< 1000	OCc1ncn(-c2ccc(OCc3c(Cl)cccc3C(F)(F)F)cn2)n1	A′ (A′ = ≥10X)	A′ (A′ = ≥10X)
< 1000	< 1000	Cc1cccc(C(F)(F)F)c1COc1cnc(N2CCN(C(N)=O)CC2)nc1	A′ (A′ = ≥10X)	A′ (A′ = ≥10X)
< 1000	< 1000	Cc1cccc(C(F)(F)F)c1COc1cnc(-n2cnc(CO)c2)nc1	A′ (A′ = ≥10X)	A′ (A′ = ≥10X)
1000 to 10000	1000 to 10000	OCCn1ccc(Nc2ccc(OCc3c(Cl)cccc3Cl)cn2)n1 [2-[3-[[5-[(2,6-dichlorophenyl)methoxy]-2-pyridyl]amino]pyrazol-1-yl]ethanol]	A′ (A′ = ≥10X)	A′ (A′ = ≥10X)
< 1000	< 1000	OCc1nnc(-c2ccc(OCc3c(Cl)cccc3Cl)cc2)o1 [[5-[4-[(2,6-dichlorophenyl)methoxy]phenyl]-1,3,4-oxadiazol-2-yl]methanol]	A′ (A′ = ≥10X)	A′ (A′ = ≥10X)
1000 to 10000	1000 to 10000	Cc1cccc(C(F)(F)F)c1COc1cnc(N2CC[C@H](C(N)=O)C2)nc1	A′ (A′ = ≥10X)	A′ (A′ = ≥10X)
< 1000	< 1000	Cc1cccc(C(F)(F)F)c1COc1cnc(N2CCC(O)C(F)(F)C2)nc1 (stereo not drawn)	C′ (C′ = <5X)	A′ (A′ = ≥10X)
1000 to 10000	1000 to 10000	NC(=O)C1CCN(c2ncc(OCc3c(Cl)cccc3Cl)cn2)C1 (stereo not drawn) [1-[5-[(2,6-dichlorophenyl)methoxy]pyrimidin-2-yl]pyrrolidine-3-carboxamide]	A′ (A′ = ≥10X)	A′ (A′ = ≥10X)
< 1000	< 1000	OCCOCCN1CCN(c2ncc(OCc3c(Cl)cccc3Cl)cn2)CC1	A′ (A′ = ≥10X)	A′ (A′ = ≥10X)
1000 to 10000	1000 to 10000	Clc1cccc(Cl)c1COc1cnc(N2CC3CC2CO3)nc1 (stereo not drawn)	A′ (A′ = ≥10X)	A′ (A′ = ≥10X)
1000 to 10000	1000 to 10000	O=C1O[C@H](CO)CN1c1ccc(OCc2c(Cl)cccc2C(F)(F)F)cn1	A′ (A′ = ≥10X)	A′ (A′ = ≥10X)
1000 to 10000	1000 to 10000	Cc1cccc(C(F)(F)F)c1COc1ccc(N2C(=O)NC(C)(C)C2=O)nc1	A′ (A′ = ≥10X)	B′ (B′ = ≥5X to <10X)
< 1000	< 1000	Cc1cccc(C(F)(F)F)c1COc1cnc(N2CCC(CO)C2)nc1 (stereo not drawn)	A′ (A′ = ≥10X)	A′ (A′ = ≥10X)

Compound	EC50 [1] [nM]	EC50 [2] [nM]	CFTR G542X ACTIVITY Fold 10 μM G-418 [1]	CFTR R1162X ACTIVITY Fold 10 μM G-418 [2]
Cc1cccc(C(F)(F)F)c1COc1cnc(N2CC3CC(C2)C3O)nc1 (stereo not drawn)	1000 to 10000	1000 to 10000	A′ (A′ = ≥10X)	A′ (A′ = ≥10X)
